# Laboratory results: a melting point compilation (Tetko et al.; mined from patent text by program, amines drawn as free bases though some values may be those of a salt)
# Residues, ends and D or L forms follow the SMILES beside them. *: point of attachment. Boc = CC(C)(C)OC(=O)*
row,SMILES,melting point [°C]
1,CC(=O)Nc1cccc(-c2cnc3c(c2)nc(-c2cccnc2N)n3-c2ccc(CNC(=O)c3ccccc3)cc2)c1,76 to 81
2,CCCCCCCCCCCCCCCCOC(=O)c1cccc([N+](=O)[O-])c1,51 to 53
3,O=C1NCCc2[nH]c3c(F)cccc3c21,255 to 257
4,COC(=O)Nc1ccc(OCc2nc3ccccc3s2)c(Cl)c1,133 to 135
5,CCOC(=O)c1cc(SC#N)c(Br)cc1N,149 to 150
6,COc1cc2sc(C(=O)O)cc2c(Cl)c1OC,267 to 270
7,NCCCc1ccc(CCCN)nc1,116 to 119
8,COC(=O)c1ccc(Cc2cn(C(C)C)c3ccc(C=C(C)C(=O)O)cc23)c(OC)c1,143 to 145
9,COC(=O)CCc1cc2nc(Cl)ccc2n1S(=O)(=O)c1ccc2ncsc2c1,146
10,Cc1ccc(NC(=O)c2ccc(CN3CCOCC3)c(C(F)(F)F)c2)cc1-c1ccc2cnncc2c1,160 to 162
11,CCCCCCCCCC(C)NC(=O)C=Cc1cccc([N+](=O)[O-])c1 (stereo not given),81 to 83
12,COC(=O)c1ccnc(NC(=O)C(CSC(C)=O)Cc2ccccc2)c1 (stereo not given),137 to 139
13,COC(=O)C[C@@H]1Nc2ccc(NC(=O)OC(C)(C)C)cc2CNC1=O,167 to 169
14,CCC(=O)OC(C#N)C(C#N)c1ccc(OC)c(OC)c1 (stereo not given),92 to 94
15,NS(=O)(=O)c1ccc(S(=O)(=O)CC(O)CO)cc1 (stereo not given),140 to 147
16,CC1(C)NC(=O)N(c2ccc([N+](=O)[O-])c(C(F)(F)F)c2)C1=O,149
17,Cc1c(NC(=O)OC(C)(C)C)cc2c(c1C)OC(C)(C)C2=O,154 to 155
18,O=C1NC(=S)SC1=Cc1ccc(OCc2ccccc2)cc1,> 225
19,CCCNC(=O)C(C)Cc1ccc2c(c1)c(Cc1ccc(C(=O)NS(=O)(=O)c3ccccc3C)cc1OC)cn2CCC(=O)N(C)C (stereo not given),120 to 132
20,CCOc1nc2cc(C)nn2c2cc(Cl)ncc12,176
21,Cc1cc(C2=NNC(=O)CC2)c2c(c1)N(C)C(=O)CO2,266 to 270
22,Cc1ccc(-n2nc3c4cc(CCc5ccccc5)ccc4[nH]c(=O)n3c2=O)cc1,303
23,COC=C(C(=O)OC)c1ccccc1C#CC1=CCN(c2ccc(Cl)cc2)O1,107 to 110
24,O=C(OCc1ccc(OCc2ccc(Cl)cc2)cc1)c1cccnc1,101 to 102
25,COc1c(C)c2c(c(O)c1CC1=C(C)CC(C(=O)O)C1)C(=O)OC2 (stereo not given),208 to 211

row,SMILES,melting point [°C]
1,COc1cc(C(F)(F)F)sc1C(=O)O,131 to 132
2,N#Cc1cnc2cc(Cl)c([N+](=O)[O-])cc2c1Cl,143 to 153
3,CC1(C)Oc2ccc(-c3c(O)c(=O)c3=O)cc2[C@@H](N2Cc3ccccc3C2=O)[C@@H]1O (relative stereo),> 250
4,Cc1ccc(NC(=O)OCc2ccco2)cc1NC(=O)OCc1ccco1,154 to 156
5,CCOC(=O)C1=C(COCCN(C)S(C)(=O)=O)NC(C)=C(C(=O)OC)C1c1ccccc1Cl (stereo not given),93 to 95
6,O=c1[nH]c2ccc(CCN3CCN(c4ncnc5ccccc45)CC3)cc2o1,200
7,CC(C)(C)OC(=O)Nc1cc2nc(-c3ccccc3)nn2cc1F,180 to 188
8,CC(=NOC(=O)N(C)SC(Cl)(Cl)Cl)SCCC#N,136 to 138
9,O=C(Cc1ccncc1)[N+]1([O-])CCC(=C2c3ccc(Cl)cc3CCc3cccnc32)CC1 (stereo not given),128 to 130
10,COc1c(C)cc([N+](=O)[O-])c(NC(C)C)c1[N+](=O)[O-],77.5 to 79
11,Cn1nc2c(N)nc3ccccc3c2c1CCCCNS(C)(=O)=O,188 to 189
12,Cc1cc(-c2ccc(Cl)cc2)nc(-n2cnc(-c3ccc(S(N)(=O)=O)s3)c2)n1,281
13,NS(=O)(=O)NCc1csc2ccccc12,101
14,COC(=O)CNC(=O)CNC(=O)CNC(=O)OC(C)(C)C (Boc-Gly-Gly-Gly-OMe),122 to 128
15,COc1ccc(C2=NOC3(CCOC3=O)C2)cc1OC1CCCC1 (stereo not given),152 to 153
16,COC(=O)[C@@H](N=[N+]=[N-])[C@@H](O)c1ccccc1,40 to 41
17,Nc1nc(CN2CCC(c3c[nH]c4ccccc34)CC2)cs1,195 to 198
18,CC1(C)CSCC(=O)N1,151 to 152
19,CCN(CC)C(=O)n1cnc(S(=O)(=O)C(F)F)n1,58 to 59
20,O=C(O)c1ccc2sc3ccccc3c2c1,281 to 283
21,Oc1cc(-c2nn3c(c2Cl)CCCC3)c(F)cc1Cl,177 to 178
22,COc1c(CN2CCC(=O)C(C(c3ccccc3)c3ccccc3)C2)cc(C(C)(C)C)cc1C(C)(C)C (stereo not given),136 to 138
23,O=c1[nH]c(=S)n2c3c1cnn3C(c1cccc(F)c1)=CC2,298 to 300
24,O=C1c2c(Cl)ccc(Cl)c2-c2nn(CCNCCO)c3ccc(NCCNCCO)c1c23,196
25,CCCc1[nH]c2cc(C(=O)OC)ccc2c1C(=O)C1CCCCC1,136 to 137

# Continued, values first:
row,melting point [°C],SMILES
1,178,CC(=O)N1CC(=O)N(C)C(=O)N1c1cc(Cl)c(C(C#N)c2ccc(Cl)cc2)c(Cl)c1 (stereo not given)
2,158 to 160,O=C(NCc1ccc(Cl)cc1)n1cc(Br)cnc1=O
3,210,Cc1c(C#N)[nH]n(-c2ccc(Cl)c(Cl)c2)c1=O
4,180,O=C(O)COc1cc(F)c(N2CCOCC2)cc1C(=O)NCc1ccc(Br)cc1F
5,75 to 76,CCCCCCCC(=O)c1ccc(CCC(CC)(COC(C)=O)NC(C)=O)cc1 (stereo not given)
6,> 250,C#CCn1c(=O)sc2cc(F)c(-n3c(=O)cc(C)[nH]c3=O)cc21
7,106,CN(Cc1cccc(-c2ccc(CC3SC(=O)NC3=O)cc2)c1)C(=O)c1cc(Cl)cc(Cl)c1 (stereo not given)
8,196,CCCCNC(=O)Nc1nc2cc(CN3CCN(C(c4ccccc4)c4ccccc4)CC3)ccc2n1C
9,159 to 161,CCCCc1nc2c(C)cnc(C(=O)O)c2n1Cc1ccc(-c2ccccc2-c2nnn[nH]2)cc1
10,171 to 173,COc1cc(OC)cc(-n2c(-c3ccccc3F)cc(=O)c(C)c2-c2ccc(F)cc2F)c1
11,167 to 168,Oc1cc(/C=C/c2ccccn2)n(-c2ccccc2)n1
12,206 to 208,Cc1ccc(Cl)c(-c2cc(=O)c3c(O)cc(O)c([C@@H]4CCN(C)[C@H]4CO)c3o2)c1
13,136 to 138,COC(=NC(=O)c1ccc(F)cc1)N1Cc2ccccc2-c2ccccc2C1
14,158 to 160,C[C@@H](n1cnc2cc(-c3ccc(Cl)cc3)sc2c1=O)[C@](O)(Cn1cncn1)c1ccc(F)cc1F
15,173 to 175,CCCCOC(=O)C1CC(n2cnc3c(N)ncnc32)C(O)C1O (stereo not given)
16,> 300,CCOC(=O)c1cccc2c(=O)cc(-c3cccc(OCc4ccc5ccccc5n4)c3)oc12
17,145 to 146,CNC(=O)C(C)(C)C(O)(Cn1cncn1)c1ccc(Cl)cc1Cl (stereo not given)
18,224 to 226,Cn1cc2c3c(c(Cl)cc2n1)CCC3=CC#N
19,183 to 186,CCOc1ccc2nc(NC(=O)N(C)C)sc2c1
20,161,C[C@H](NCc1ccc(OCc2ccccc2F)c(Cc2ccccc2F)c1)C(N)=O
21,208 to 209,CCNc1nc(C)c(-c2ccnc(Nc3ccc(N4CCN(C(C)=O)CC4)cc3)n2)s1
22,162 to 164,Cn1nc(C#N)c(Nc2ccc(Br)cc2[N+](=O)[O-])n1
23,55 to 56,COC(=O)c1ncccc1NC(=O)C(C)CS (stereo not given)
24,177 to 179,O=C1[C@H]2CCC[C@H]2N(C(=O)CBr)c2ccccc2N1Cc1ccccc1 (relative stereo)
25,184 to 185,O=C(Nc1cnc(-c2ccccc2)nc1C(=O)O)OCc1cc2cc(-c3ccccc3)ccc2o1

row,melting point [°C],SMILES
1,83,COc1c(F)c(Oc2cc(C(F)(F)F)nn2C)nc(Oc2cc(C(F)(F)F)nn2C)c1F
2,210 to 212,Nc1cc(O)c(Cn2nc(-c3ccc(C(F)(F)F)cc3)oc2=O)cc1Cl
3,146 to 148,CCN1C(=O)C(C)(C)C(=O)N(C)c2cc(CN(CCn3ccc4oc(C)cc4c3=O)Cc3cncnc3)ccc21
4,222 to 224,Nc1nc2c(Cc3ccsc3)c[nH]c2c(=O)[nH]1
5,145 to 147,CC(CO)Nc1c(Br)cnc2cc(Cl)ccc12 (stereo not given)
6,115 to 116,CN(C)C=C(C(=O)c1ccccc1)c1ccc(F)cc1
7,148 to 149,CC1(C)Nc2cc(F)ccc2NC1=O
8,43 to 45,CCC(=O)c1c(OC)cccc1OC
9,143,CCOC(=O)Nc1ccc(C(c2ccccc2)n2ccnc2)cc1CO (stereo not given)
10,> 240,Cn1ccnc1Sc1ccc(Nc2c(C#N)cnc3sccc23)cc1Cl
11,240 to 241,CN1C(=O)N(c2ccc(C(=O)O)cc2)S(=O)(=O)c2ccc(OCC3CCCCC3)cc21
12,95.1,CCOc1cc(-c2ccc(C(F)(F)F)cc2)nc(-c2cccc(C(F)(F)F)c2)c1
13,60,CCSc1cc(=O)c2c(O)cc(OC)c(C3CCN(C)CC3O)c2o1 (stereo not given)
14,166 to 167,Cc1sc2ncc(CO)n2c1C
15,118 to 119,COc1cc(C=O)ccc1OCc1sc(-c2ccccc2)nc1C
16,205 to 207,CCc1cc(NCc2ccc(-c3ccccc3C#N)cc2)n2ncc([N+](=O)[O-])c2n1
17,73.5 to 75.5,COc1ccc(Oc2ccc(C(C)=C3SCCCS3)cc2)cc1OC
18,166 to 168,Cn1c2c(ccc1=O)C(C)(N)CCC2 (stereo not given)
19,117 to 118,CSCC(=O)[C@H](Cc1ccccc1)NC(=O)[C@H](CC(C)C)NC(=O)OC(C)(C)C
20,98 to 101,COP(=O)(CCC(C)(C)c1ccc(O)cc1)OC
21,110 to 112,C=CC(O)c1cccc(C=Cc2ccc3ccc(Cl)cc3n2)c1 (stereo not given)
22,152 to 153,OCC1OC(n2c(Cl)c(-c3ccsc3)c3cc(Cl)c(Cl)cc32)C(O)C1O (stereo not given)
23,109 to 110,CCSC(F)(F)C(O)(Cn1cncn1)c1ccc(F)cc1F (stereo not given)
24,98,CC(C)N(C(=O)COc1nnc(C(F)F)s1)c1cccc(Cl)c1
25,90 to 91,Nc1cc([N+](=O)[O-])ccc1OC(F)(F)F
